Drawing on patent US8912338B2, “Pesticidal compositions” (Dow AgroSciences LLC, priority 2010, dated 2014), this text covers inhibition and melting point for 26 compounds.

Where only a bound is given, the exact number is not on record here.

Series [1] relates to Cotton Aphid (Aphis gossypii). In words: Insecticidal test for cotton aphid in a foliar spray assay. It counts as in vivo. The conditions noted are these: 72 h, 200 ppm foliar spray on squash or cotton seedlings, live aphids counted after three days, Abbott's corrected % control, read-out: APHIGO % Ctrl @ 200 ppm. Here is the method:
Squash or cotton seedlings with fully expanded cotyledon leaves were trimmed to one cotyledon per plant and infested with wingless adult and nymph stage cotton aphid (APHIGO) one day prior to chemical application. Each plant was examined before chemical application to ensure uniform infestation (ca. 30-70 aphids per plant). Compounds (2 mg) were dissolved in 2 mL of acetone/methanol (1:1) solvent, forming stock solutions of 1000 ppm. The stock solutions were diluted 5× with 0.025% Tween 20 in H2O to obtain a solution at 200 ppm. A hand-held Devilbiss aspirator type sprayer was used to apply the spray solutions until runoff to both sides of the squash cotyledon leaves. Four plants (4 replications) were used for each concentration of each compound. Reference plants (solvent check) were sprayed with the diluent only. Treated plants were held in a holding room for three days at approximately 25° C. and 40% RH before the number of live cotton aphids on each plant was recorded. Insecticidal activity data presented in Table 3 were generated by using Abbott's correction formula: Corrected%Control=100*(X−Y)/X • where X=No. of live aphids on solvent check plants • Y=No. of live aphids on treated plants

Series [2] deals with Green Peach Aphid (Myzus persicae). In words: Insecticidal test for green peach aphid in foliar spray assay. Particulars: 72 h, 200 ppm foliar spray on cabbage seedlings, live aphids counted after three days, Abbott's corrected % control, read-out: MYZUPE % Ctrl @ 200 ppm. It counts as in vivo. As to the method: Certain molecules disclosed in this document were tested against MYZUPE using procedures described in the following example. In the reporting of the results, the “MYZUPE, APHIGO and BEMITA Rating Table” was used (See Table Section).
Cabbage seedlings grown in 3-inch pots, with 2-3 small (3-5 cm) true leaves, were used as test substrate. The seedlings were infested with 20-50 green peach aphids (wingless adult and nymph stage) one day prior to chemical application. Four pots with individual seedlings were used for each treatment. Compounds (2 mg) were dissolved in 2 mL of acetone/methanol (1:1) solvent, forming stock solutions of 1000 ppm. The stock solutions were diluted 5× with 0.025% Tween 20 in H2O to obtain the test solution at 200 ppm. A hand-held Devilbiss sprayer was used for spraying a solution to both sides of cabbage leaves until runoff. Reference plants (solvent check) were sprayed with the diluent only. Treated plants were held in a holding room for three days at approximately 25° C. and 40% relative humidity (RH) prior to grading. Evaluation was conducted by counting the number of live aphids per plant under a microscope. Insecticidal activity data presented in Table 3 were generated by using Abbott's correction formula: Corrected%Control=100*(X−Y)/X • where X=No. of live aphids on solvent check plants • Y=No. of live aphids on treated plants

Series [3] concerns Sweetpotato Whitefly (Bemisia tabaci). In words: Insecticidal test for sweetpotato whitefly in foliar spray assay. The series is classed as in vivo. The conditions noted are these: 200 ppm foliar spray on cotton plants infested with eggs, live nymphs counted after 8-9 days, Abbott's corrected % control, read-out: BEMITA % Ctrl @ 200 ppm. Here is the method: Cotton plants were used as test substrate and were grown in 3-inch pots and pruned until only 1 small (3-5 cm) true leaf remained. The plants were then placed in a room with whitefly ([…]) adults and allowed to be infested with eggs. After a 2-3 day egg-laying period, plants were taken from the adult whitefly room and the adults were removed from the leaves using compressed air delivered through a hand-held Devilbiss sprayer (23 psi). Plants infested with eggs (100-300 eggs per plant) were placed in a controlled-environment room for 5-6 days at 82° F. and 50% RH until approximately 50% egg hatch. Four cotton plants (4 replicates) were used for each treatment. Compounds (2 mg) were dissolved in 1 mL of acetone solvent, forming stock solutions of 2000 ppm. The stock solutions were diluted 10× with 0.025% Tween 20 in H2O to obtain the test solution of 200 ppm. A hand-held Devilbiss sprayer was used for spraying a solution to both sides of cotton leaf until runoff. Reference plants (solvent check) were sprayed with the diluent only. Treated plants were held in a holding room for 8-9 days at approximately 82° F. and 50% RH prior to grading. Evaluation was conducted by counting the number of live nymphs per plant under a microscope. Insecticidal activity data presented in Table 3 were generated by using Abbott's correction formula: Corrected%Control=100*(X-Y)/X • where X=No. of live nymphs on solvent check plants • Y=No. of live nymphs on treated plants […]

On to `CCN(C(=O)CCSC)c1nnc(-c2cccnc2)s1` [Compound 9], for which the melting point was in the range of 116 to 120 °C. Besides, the inhibition at 200 ppm in series [1] was 80 to 100%. Also, in series [2], the inhibition at 200 ppm was 80 to 100%. Also, in series [3], the inhibition at 200 ppm was in the range of 0 to 80%.
In the case of `CCSCC(C)(C)C(=O)N(C)c1nnc(-c2cccnc2)s1` [Compound 17], the inhibition at 200 ppm in series [1] was 80 to 100%; in series [2], 80 to 100%; in series [3] it was 0 to 80%.
In turn, `CN(C(=O)C1(CS(C)(=O)=O)CC1)c1nnc(-c2cccnc2)s1` [Compound 46] returned a melting point of 208 to 212 °C. For the same compound, the inhibition at 200 ppm in series [1] lay within 80 to 100%. Also, the inhibition at 200 ppm in series [3] fell in the range of 0 to 80%.
With `CN(C(=O)CSCc1ccccc1)c1nnc(-c2cncc(F)c2)s1` [Compound 84], the melting point lay in the range of 145 to 147 °C. Moreover, in series [2], the inhibition at 200 ppm is 0 to 80%. Moreover, the inhibition at 200 ppm in series [3] fell in the range of 0 to 80%.
In the case of `CN(C(=O)CCNC(=O)OC(C)(C)C)c1nnc(-c2cccnc2)s1` [Compound 38], the melting point was in the range of 41 to 48 °C. Further, the inhibition at 200 ppm in series [1] lay in the range of 80 to 100%. Further, the inhibition at 200 ppm in series [2] was 80 to 100%. Also, the inhibition at 200 ppm in series [3] fell in the range of 0 to 80%.
For `CSCC(C)(CN)C(=O)N(C)c1nnc(-c2cncc(F)c2)s1` (stereo not drawn) [Compound 89, 2-(aminomethyl)-N-[5-(5-fluoro-3-pyridyl)-1,3,4-thiadiazol-2-yl]-N,2-dimethyl-3-methylsulfanyl-propanamide], the melting point was 154 to 157 °C. For the same compound, in series [2], the inhibition at 200 ppm was 0 to 80%. The inhibition at 200 ppm in series [3] lay within 0 to 80%.
`CSCCCC(=O)N(C)c1nnc(-c2cccnc2)s1` [Compound 6] returned a melting point of 93 to 95 °C. The inhibition at 200 ppm in series [1] was 80 to 100%. The inhibition at 200 ppm in series [2] lay in the range of 80 to 100%. Further, in series [3], the inhibition at 200 ppm lay in the range of 0 to 80%.
In the case of `CC(=O)CCC(=O)N(C)c1nnc(-c2cccnc2)s1` [Compound 49, N-methyl-4-oxo-N-[5-(3-pyridyl)-1,3,4-thiadiazol-2-yl]pentanamide], the melting point was in the range of 146 to 147 °C. Further, in series [1], the inhibition at 200 ppm lay in the range of 80 to 100%. In addition, the inhibition at 200 ppm in series [2] was in the range of 0 to 80%. Besides, the inhibition at 200 ppm in series [3] lay within 0 to 80%.
`CSCCOC(=S)N(C)c1nnc(-c2cncc(F)c2)s1` [Compound 85, [5-(5-fluoro-pyridin-3-yl)-[1,3,4]thiadiazol-2-yl]-methyl-thiocarbamic acid 2-methylsulfanyl-ethyl ester] showed a melting point of 150 to 152 °C. In addition, the inhibition at 200 ppm in series [2] lay in the range of 0 to 80%. The inhibition at 200 ppm in series [3] fell in the range of 0 to 80%.
For `CSCC(C)(C)C(=O)OCC(C)(C)C(=O)N(C)c1nnc(-c2cncc(F)c2)s1` [Compound 91], the melting point was 90 to 93 °C. The inhibition at 200 ppm in series [2] was in the range of 80 to 100%. Also, the inhibition at 200 ppm in series [3] is 80 to 100%.
For `CCOC(=S)N(C)c1nnc(-c2cncc(F)c2)s1` [Compound 80, [5-(5-fluoro-pyridin-3-yl)-[1,3,4]thiadiazol-2-yl]-methyl-thiocarbamic acid ethyl ester], the melting point lay in the range of 137 to 140 °C. Further, the inhibition at 200 ppm in series [2] lay within 80 to 100%. The inhibition at 200 ppm in series [3] lay in the range of 0 to 80%.
As to `CSCCOC(=O)N(C)c1nnc(-c2cccnc2)s1` [Compound 50, 2-(Methylthio)ethyl methyl(5-(pyridin-3-yl)-1,3,4-thiadiazol-2-yl)carbamate], the melting point was 126 to 128 °C. Moreover, the inhibition at 200 ppm in series [1] was in the range of 80 to 100%. In series [2], the inhibition at 200 ppm lay within 80 to 100%. Also, the inhibition at 200 ppm in series [3] fell in the range of 0 to 80%.
The compound `CCSCC(=O)N(C)c1nnc(-c2cccnc2)s1` [Compound 8] registered a melting point of 87 to 92 °C. For the same compound, the inhibition at 200 ppm in series [1] lay within 80 to 100%. Also, the inhibition at 200 ppm in series [2] was 80 to 100%. The inhibition at 200 ppm in series [3] is < 0%.
`CSCCOC(=O)N(C)c1nnc(-c2cncc(F)c2)s1` [Compound 78, [5-(5-fluoropyridin-3-yl)-[1,3,4]thiadiazol-2-yl]-methylcarbamic acid 2-methylsulfanyl-ethyl ester] returned a melting point of 104 to 106 °C. Also, the inhibition at 200 ppm in series [2] fell in the range of 80 to 100%. Besides, in series [3], the inhibition at 200 ppm was in the range of 80 to 100%.
Consider `CCC(CC)(CSC)C(=O)N(C)c1nnc(-c2cccnc2)s1` [Compound 53], for which the figures for the inhibition at 200 ppm in series [1], in series [2] and in series [3] were 80 to 100%, 0 to 80% and 0 to 80%, respectively.
For `CSCC(C)(C#N)C(=O)N(C)c1nnc(-c2cncc(F)c2)s1` (stereo not drawn) [Compound 88], the melting point was in the range of 109 to 111 °C. In addition, the inhibition at 200 ppm in series [2] was in the range of 80 to 100%. For the same compound, the inhibition at 200 ppm in series [3] was in the range of 0 to 80%.
For the compound `CC(CS(C)(=O)=O)C(=O)N(C)c1nnc(-c2cccnc2)s1` (stereo not drawn) [Compound 37], the figures for the inhibition at 200 ppm in series [1], in series [2] and in series [3] were 80 to 100%, 80 to 100% and 0 to 80%, respectively.
Consider `CSCC(C)C(=O)N(C)c1nnc(-c2cccnc2)s1` (stereo not drawn) [Compound 28, N-2-Dimethyl-3-(methylthio)-N-(5-(pyridin-3-yl)-1,3,4-thiadiazol-2-yl)propanamide], for which the inhibition at 200 ppm in series [1] fell in the range of 80 to 100%; in series [2], 80 to 100%; in series [3], 0 to 80%.
For the compound `CN(C(=O)C(C)(C)C[S+](C)[O-])c1nnc(-c2cccnc2)s1` (stereo not drawn) [Compound 32], the inhibition at 200 ppm in series [1], in series [2] and in series [3] was 80 to 100% each time.
For `CN(C(=O)C(C)(C)CS(C)(=O)=NC#N)c1nnc(-c2cccnc2)s1` (stereo not drawn) [Compound 42, N-2,2-trimethyl-3-(methyl-N-cyano-sulfoximinyl)-N-(5-(pyridin-3-yl)-1,3,4-thiadiazol-2-yl)propanamide], the values for the inhibition at 200 ppm in series [1], in series [2] and in series [3] were 0 to 80%, 80 to 100% and 0 to 80%, respectively.
`COCCNC(=S)N(C)c1nnc(-c2cccnc2)s1` [Compound 95]: the melting point is 118 to 121 °C. For the same compound, the inhibition at 200 ppm in series [2] fell in the range of 80 to 100%. Further, the inhibition at 200 ppm in series [3] was in the range of 0 to 80%.
Taken in the same sequence, the figures for `C=CCSCC(C)C(=O)N(C)c1nnc(-c2cccnc2)s1` (stereo not drawn) [Compound 94] were 43 to 46 °C, 80 to 100% and 80 to 100%.
Taken in the same sequence, the figures for `CSCCNC(=O)N(C)c1nnc(-c2cncc(F)c2)s1` [Compound 79, 1-[5-(5-fluoro-pyridin-3-yl)-[1,3,4]thiadiazol-2-yl]-1-methyl-3-(2-methylsulfanyl-ethyl)-urea] were 100 to 104 °C, 80 to 100% and 0 to 80%.
`CCSC(C)CC(=O)N(C)c1nnc(-c2cccnc2)s1` (stereo not drawn) [Compound 13]: the inhibition at 200 ppm in series [1] is 80 to 100%; in series [2] it was 80 to 100%; in series [3], 0 to 80%.
`CSCC(C)C(=O)Nc1nnc(-c2cccnc2)s1` (stereo not drawn) [Compound 92] registered a melting point of 176 °C. Further, the inhibition at 200 ppm in series [2] lay in the range of 0 to 80%. The inhibition at 200 ppm in series [3] was in the range of 0 to 80%.
Take `CN(C(=O)C(C)(C)CS(C)(=O)=O)c1nnc(-c2cccnc2)s1` [Compound 33]: the inhibition at 200 ppm in series [1] fell in the range of 80 to 100%; in series [2] it was 80 to 100%; in series [3] it was 0 to 80%.

By melting point is commonly meant the temperature of the solid-liquid transition.
